Experimental data as given in PMC12723449, “From Pharmacophore to Warhead: NAD^+‐Targeting Triazoles as Mechanism‐Based Sirtuin Inhibitors” (Angewandte Chemie (International Ed. in English), 2025).
Where two headings read alike, the source gives them in different places.

Tests used:
SIRT2 [1] = target: T1, SIRT2 (Homo sapiens, UniProt Q8IXJ6); experiment: Fluorescence-based deacetylation assay (ZMAL-assay), SIRT2; assay type: biochemical; settings: 37 °C, assay limit 0.10 µM, read-out: SIRT2 (deac.) IC50
T1 construct: For assay experiments, strep-tagged human SIRT1134−747 and SIRT256-356 were expressed and purified as previously; Strep-tag; made in house; host or cells: E. coli BL21 Star (DE3)
T1 sequence (Q8IXJ6 56-356 limits assumed): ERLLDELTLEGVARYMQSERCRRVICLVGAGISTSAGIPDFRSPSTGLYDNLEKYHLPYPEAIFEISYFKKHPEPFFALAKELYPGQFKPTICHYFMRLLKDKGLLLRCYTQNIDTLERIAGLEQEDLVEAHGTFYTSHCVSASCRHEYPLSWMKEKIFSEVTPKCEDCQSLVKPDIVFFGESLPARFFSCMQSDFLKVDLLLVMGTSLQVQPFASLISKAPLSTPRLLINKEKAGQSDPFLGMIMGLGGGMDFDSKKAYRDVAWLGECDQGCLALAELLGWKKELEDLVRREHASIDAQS
Procedure: Determination of IC50 values (SIRT1, SIRT2, SIRT3) via fluorescence-based deacetylation assay […]
The fluorescence-based deacetylation assay was conducted in a black 384-well microplate (OptiPlate-384 F, PerkinElmer) with a total volume of 30 µL per well and a final DMSO concentration of 2% (v/v) according to a […]
concentration of 100 nM) in assay buffer (50 mM Tris, 137 mM NaCl, 2.7 mM KCl, 1m MgCl2, 0.01% Tween, 0.05 mg/mL BSA, 0.2 mM TCEP, pH 8.0), 5 µL of substrate (ZMAL, final concentration of 10.5 µM), 5 µL of NAD+ (final concentration of 500 µM) and 10 µL of inhibitor solution (final concentration of 30 µM – 0.014 µM, serial 1:3 dilutions) was incubated at 37 °C and 300 rpm for 4 h. A solution of trypsin (final concentration of 0.5 mg/mL) and nicotinamide (final concentration of 4 mM) was added and incubated at 37 °C and 300 rpm for 30 min to stop the reaction. Samples with 2% (v/v) DMSO instead of inhibitor were prepared as a positive control, and samples with 2% (v/v) DMSO instead of SIRT enzyme were prepared as a negative control. Fluorescence intensity was measured with a microplate reader (λEx = 380-10 nm, λEm = 460 nm, BMG POLARstar Optima, BMG Labtech, Germany). IC50 values were then determined using a nonlinear regression fit with Origin Pro 2019 software. All experiments were performed at least in duplicates. […]

[2] = target: T2, NanoLuc–SIRT2 fusion protein in HEK293T cells (Homo sapiens, UniProt Q8IXJ6); experiment: NanoBRET cellular target engagement assay; assay type: cell-based; settings: for Ki: read-out: NanoBRET K i (Cheng–Prusoff)
T2 construct: transfected HEK293T cells expressing the NanoLuc-tagged SIRT250-356 fusion protein were used instead of transient; expressed in transfected cells; host or cells: HEK293T (stably transfected)
T2 sequence (Q8IXJ6 50-356 limits assumed): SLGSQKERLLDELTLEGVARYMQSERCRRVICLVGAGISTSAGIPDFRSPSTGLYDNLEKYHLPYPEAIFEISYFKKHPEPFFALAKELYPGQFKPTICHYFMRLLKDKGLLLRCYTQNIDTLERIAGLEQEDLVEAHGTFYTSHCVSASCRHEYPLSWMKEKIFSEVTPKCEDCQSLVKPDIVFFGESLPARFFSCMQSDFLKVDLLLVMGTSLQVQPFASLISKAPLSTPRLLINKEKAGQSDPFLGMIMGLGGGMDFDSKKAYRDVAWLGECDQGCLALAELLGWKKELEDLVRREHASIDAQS
Procedure: The NanoBRET target engagement assay was performed as previously described[2] with the modification that stably transfected HEK293T cells expressing the NanoLuc-tagged SIRT250-356 fusion protein were used instead of transient transfection. Briefly, HEK293T-NLuc- SIRT250-356 cells were cultured under standard conditions (37 °C, 5% CO2) in DMEM supplemented with 10% fetal bovine serum, 2 mM glutamine, and 300 µg/mL hygromycin as a selection marker. For the assay, cells were trypsinized, resuspended in Opti-MEM® reduced serum medium, and adjusted to a concentration of 2 × 10^5 cells per mL. […]
µM was used. Serially diluted inhibitor and tracer were added to the cell suspension, and 100 μL were seeded into 96-well white, sterile, nonbinding surface plates. To evaluate the cellular permeability of LTDi-1 (6), the non-ionic detergent digitonin (50 µg/ml) was added. Plates were incubated at 37 °C with 5% CO2 for 2 h. For BRET measurements, NanoBRET NanoGlo Substrate (Promega cat. #N1571) was added to the wells according to the […]
All measurements were performed using the 2102 EnVisionTM Multilabel Reader (PerkinElmer), equipped with a 460 nm filter (donor) and a 615 nm filter (acceptor). The BRET ratio was calculated as the ratio of acceptor to donor signal, and data were normalized to vehicle-treated controls. Apparent intracellular binding affinities (EC50 values) were determined by fitting dose-response curves using nonlinear regression analysis in GraphPad Prism. […]

SIRT2 [3] = target: T1, SIRT2; experiment: Differential scanning fluorimetry (DSF) / fluorescence thermal shift assay; assay type: binding
Procedure: Differential scanning fluorimetry (DSF) assay
Differential scanning fluorimetry assays were performed in white 96-well plates (Hard-Shell PCR Plates, BioRad, USA) with a total volume of 20 µL per well and a final DMSO concentration of 5% (v/v), following a published
A solution of 10 µL SIRT2 (final concentration of 6.0 µM) and SYPRO Orange (5x, Sigma-Aldrich, Germany) in assay buffer (25 mM Tris-HCl, 150 mM NaCl, 1 mM DTT, pH 8.0) was mixed with 10 µL of compound and incubated at 25 °C and 350 rpm for 5 min. Where applicable, NAD+ was added to a final concentration of 2.5 mM. Fluorescence
(C1000 Touch™ Thermal Cycler, CFX96™ Real-Time System, BioRad, USA). Melting temperatures were determined using GraphPad Prism, following a published procedure.[6]

[4] = 2 µM tracer, co-treatment with digitonin

IC50 (SIRT2 [1]) [nM]	EC50 ([2]; without digitonin) [nM]	EC50 [2, 4] [nM]	Ki [2, 4] [nM]	EC50 ([2]; 2 µM tracer, without digitonin) [nM]	Ki ([2]; 2 µM tracer, without digitonin) [nM]	ΔTm at 10 µM (SIRT2 [3]; 10 µM compound, with NAD+ addition) [°C]	Structure (SMILES)	NAD+-dependent thermal stabilization of SIRT2 (SIRT2 [3]; upon NAD+ addition)
7800 ± 2100	–	–	–	–	–	–	Cc1cc(C)nc(SCC(=O)Nc2ncc(Cc3cccc(OCc4c[nH]nn4)c3)s2)n1 [Compound 7]	–
–	2700 ± 100	–	–	–	–	–	COCCn1cc(COc2cccc(Cc3cnc(NC(=O)CSc4nc(C)cc(C)n4)s3)c2)nn1 [Compound 1, reference compound]	pronounced NAD^+‐dependent thermal stabilization
< 100	–	160 ± 20	18 ± 2	340 ± 90	38 ± 10	16.3 ± 0.1	CCCCCCCCCCCCc1cn(CCCC[C@H](NC(=O)[C@H](CCCCN)NC(=O)[C@@H]2CCCN2C(=O)[C@H](CC(C)C)NC(=O)[C@H](C)NC(=O)[C@H](CCC(=O)O)NC(C)=O)C(=O)N[C@H](C(=O)NCC(=O)NCC(N)=O)[C@@H](C)O)nn1 [Compound 6]	–
